Experimental data published in US8664225B2, “1-[2-(2,4-dimethylphenylsulfanyl)-phenyl] piperazine as a compound with combined serotonin reuptake, 5-HT3 and 5-HT1A activity for the treatment of pain or residual symptoms in depression relating to sleep and cognition” (H. Lundbeck A/S, priority 2007, dated 2014).

Tests used:
human 5HT3 receptor = target: T1, human 5HT3 receptor (Homo sapiens, UniProt P46098); assay: Human 5HT3 receptor in vitro binding assay
T1 sequence (P46098 24-478): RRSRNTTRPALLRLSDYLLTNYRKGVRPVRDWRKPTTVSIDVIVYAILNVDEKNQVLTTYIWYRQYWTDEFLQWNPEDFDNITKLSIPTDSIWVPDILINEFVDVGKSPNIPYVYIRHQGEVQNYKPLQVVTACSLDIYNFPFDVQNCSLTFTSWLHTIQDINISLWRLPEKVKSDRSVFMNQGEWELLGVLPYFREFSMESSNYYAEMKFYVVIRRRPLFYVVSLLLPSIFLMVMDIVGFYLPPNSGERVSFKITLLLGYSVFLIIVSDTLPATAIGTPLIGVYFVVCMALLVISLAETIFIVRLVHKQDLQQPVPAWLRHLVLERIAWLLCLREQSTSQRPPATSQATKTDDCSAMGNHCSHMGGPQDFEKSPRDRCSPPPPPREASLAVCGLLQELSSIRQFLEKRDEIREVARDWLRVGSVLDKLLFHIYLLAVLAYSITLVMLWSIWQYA

mice = assay: Mouse intradermal formalin test; assay type: in vivo; settings: formalin 4.5% into hind paw
Experimental: In this model, mice receive an injection of formalin (4.5%, 20 μl) into the left hind paw. The irritation caused by the formalin injection elicits a characteristic biphasic behavioural response, as quantified by the amount of time spent licking the injured paw. The first phase (˜0-10 minutes) represents direct chemical irritation and nociception, whereas the second (˜20-30 minutes) is thought to represent pain of neuropathic origin. The two phases are separated by a quiescent period in which behaviour returns to normal. The effectiveness of test compounds to reduce the painful stimuli is assessed by counting the amount of time spent licking the injured paw in the two phases.

patients [1] = assay: Clinical trial in patients, HAM-D sleep items 4, 5 and 6; assay type: in vivo, human; settings: 5 and 10 mg daily against placebo, 6 weeks, approximately 100 patients per arm, HBr salt, FIGS. 23-25
Experimental: (§1) The HAM-D scale may be used to assess the severity of depression in patients by means of a 24 items questionnaire. Item 4, 5 and 6 of the scale relate to how the patients sleep, i.e. is it easy to fall asleep (insomnia Early), does the patient wake up during the night (Insomnia Middle), and does the patient wake up early in the morning (Insomnia Late). The compound was tested at 5 and 10 mg daily against placebo with approximately 100 patients per arm.

patients [2] = assay: Clinical trial in patients, sexually related adverse effects reported; assay type: in vivo, human; settings: approximately 100 patients
Experimental: as §1
This notion was further supported by clinical trials conducted in patients. The above mentioned clinical trial in patients also captured sexual adverse effects reported by the patients.

[3] = target: Human serotonin transporter (Homo sapiens, UniProt P31645); assay: Human serotonin transporter, blockade of 5-HT uptake; assay type: biochemical
Sequence of Human serotonin transporter (P31645 whole entry): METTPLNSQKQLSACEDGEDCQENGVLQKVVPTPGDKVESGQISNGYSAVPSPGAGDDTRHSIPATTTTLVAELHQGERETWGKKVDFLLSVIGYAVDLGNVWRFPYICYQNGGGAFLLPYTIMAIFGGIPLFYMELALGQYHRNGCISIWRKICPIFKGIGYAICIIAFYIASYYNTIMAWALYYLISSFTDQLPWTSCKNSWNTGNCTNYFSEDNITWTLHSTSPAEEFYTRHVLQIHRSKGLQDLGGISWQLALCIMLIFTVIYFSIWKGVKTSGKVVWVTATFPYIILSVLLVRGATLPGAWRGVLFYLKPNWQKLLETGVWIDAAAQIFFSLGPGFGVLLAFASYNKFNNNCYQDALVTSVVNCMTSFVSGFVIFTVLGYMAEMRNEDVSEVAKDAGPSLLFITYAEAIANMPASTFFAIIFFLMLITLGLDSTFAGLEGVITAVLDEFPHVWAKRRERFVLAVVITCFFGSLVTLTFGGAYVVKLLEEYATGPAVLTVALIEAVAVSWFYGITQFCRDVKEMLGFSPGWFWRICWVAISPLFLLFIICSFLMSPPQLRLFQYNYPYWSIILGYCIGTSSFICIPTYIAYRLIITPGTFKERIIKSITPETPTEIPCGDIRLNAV

Rat 5-HT3 receptor = target: T2, Rat 5-HT3 receptor (Rattus norvegicus, UniProt P35563); assay: Rat 5-HT3 receptor functional assay (antagonism); assay type: biochemical
T2 sequence (P35563 24-483): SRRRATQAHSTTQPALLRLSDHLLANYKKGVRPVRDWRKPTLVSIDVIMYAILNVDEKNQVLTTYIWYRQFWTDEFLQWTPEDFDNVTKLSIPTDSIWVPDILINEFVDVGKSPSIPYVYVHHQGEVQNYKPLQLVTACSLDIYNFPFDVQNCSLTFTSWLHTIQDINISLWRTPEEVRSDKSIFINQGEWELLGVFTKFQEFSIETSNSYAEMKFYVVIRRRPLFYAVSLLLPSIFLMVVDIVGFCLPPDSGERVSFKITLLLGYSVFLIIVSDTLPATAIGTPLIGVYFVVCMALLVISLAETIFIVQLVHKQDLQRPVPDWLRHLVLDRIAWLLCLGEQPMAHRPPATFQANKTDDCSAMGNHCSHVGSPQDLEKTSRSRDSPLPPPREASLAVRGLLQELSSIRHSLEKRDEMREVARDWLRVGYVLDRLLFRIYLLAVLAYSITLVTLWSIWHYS

healthy subjects = assay: Clinical trials in healthy subjects, sexual dysfunction reported; assay type: in vivo, human; settings: of 114 healthy subjects exposed
Human 5-HT3A receptor = target: T3, Human 5-HT3A receptor (Homo sapiens, UniProt P46098); assay: Human 5-HT3A receptor functional assay; assay type: biochemical; settings: read-out: IC50 (antagonism in functional assay)
T3 sequence (P46098 24-478): T1 sequence (P46098 24-478)

Cc1ccc(Sc2ccccc2N2CCNCC2)c(C)c1 [compound I, 1-[2-(2,4-dimethylphenylsulfanyl)-phenyl]piperazine]
Ki (human 5HT3 receptor): 4.5 nM | first phase scores (time spent licking the paw, 0-5 minutes) (mice; FIG. 18a, highest dose): significant reduction | second phase pain scores (time spent licking the paw, 20-30 minutes) (mice; FIG. 18b): significant reduction | sleep pattern, HAM-D items 4, 5 and 6 (Insomnia Early, Middle, Late) (patients [1]): large and dose dependent improvement | number of patients reporting Anorgasmia (patients [2]; 5 mg daily): 0 | number of patients reporting Ejaculation delayed (patients [2]; 5 mg daily): 0 | number of patients reporting Erectile dysfunction (patients [2]; 5 mg daily): 0 | number of patients reporting Libido decreased (patients [2]; 5 mg daily): 1 | number of patients reporting Loss of libido (patients [2]; 5 mg daily): 1 | number of patients reporting Orgasm abnormal (patients [2]; 5 mg daily): 0 | number of patients reporting Orgasmic sensation decreased (patients [2]; 5 mg daily): 0 | number of patients reporting Anorgasmia (patients [2]; 10 mg daily): 0 | number of patients reporting Ejaculation delayed (patients [2]; 10 mg daily): 0 | number of patients reporting Erectile dysfunction (patients [2]; 10 mg daily): 0 | number of patients reporting Libido decreased (patients [2]; 10 mg daily): 1 | number of patients reporting Loss of libido (patients [2]; 10 mg daily): 0 | number of patients reporting Orgasm abnormal (patients [2]; 10 mg daily): 0 | number of patients reporting Orgasmic sensation decreased (patients [2]; 10 mg daily): 0 | IC50 [3]: 40 nM | IC50 (Rat 5-HT3 receptor): 0.2 nM | number of subjects reporting sexual dysfunction (healthy subjects): one | IC50 (Human 5-HT3A receptor): ~20 nM
